Patent publication US12606541B2, “PPARg modulators and methods of use” (Eisai R&D Management Co., Ltd., priority 2020, dated 2026)

Molecular target: T1, His6-TEV-PPARγ-(234-505) (Homo sapiens, UniProt P37231)
T1 construct: The His6-TEV-PPARγ-(234-505) protein for assay was expressed and purified; TEV cleavage site (N); made in house
T1 sequence (P37231 234-505): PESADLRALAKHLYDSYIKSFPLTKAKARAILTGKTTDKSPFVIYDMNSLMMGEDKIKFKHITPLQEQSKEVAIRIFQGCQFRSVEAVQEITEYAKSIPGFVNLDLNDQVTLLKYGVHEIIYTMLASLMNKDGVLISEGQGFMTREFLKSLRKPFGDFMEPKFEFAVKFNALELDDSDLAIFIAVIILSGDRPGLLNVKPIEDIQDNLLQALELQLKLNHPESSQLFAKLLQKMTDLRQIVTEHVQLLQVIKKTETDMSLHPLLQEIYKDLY
Experiment: TR-FRET Assay to Measure Co-R Peptide Recruitment to PPARγ
Format: biochemical
Conditions: Co-R peptide recruitment to PPARγ; read-out: TR-FRET AC50
Description: TR-FRET Assay to Measure Co—R Peptide Recruitment to PPARγ
The 2× detection solution contained anti-6×His-Terbium antibody (CisBio) and FITC labeled Co—R peptide (SMRT-ID2 from New England Peptide) at final concentrations of 5 and 200 nM respectively.
In these assay plates, the positive control in column 24 contained 500 nM (final) T0070907 and the negative control in column 23 contained an identical volume of DMSO. Then, 5 μL of 2+ protein working stock or controls were added to the plate and incubated for 20 minutes at room temperature. Reagents additions were performed with either a Combi (Thermo) or Mantis (Formulatory) pipetting device. The incubation was followed by addition of 5 μL of the 2× detection solution. Plates were covered, centrifuged, and incubated for an additional hour. The TR-FRET data was recorded with an Envision plate reader (Perkin Elmer), using settings recommended by Thermo Fisher. The TR-FRET signal of the positive and negative control's recruitment of FITC-Co—R peptide was used to normalize the TR-FRET signal to percent response and to determine the assay Z prime. Experiments were performed in triplicate and analyzed in GraphPad Prism 7.

AC50, > 1 µM:
COc1cc(-c2cc(C(=O)N3CCC(C)(C(=O)NC4CCC(C)CC4)CC3)n[nH]2)ccn1 (stereo not shown) [1-[5-(2-methoxypyridin-4-yl)-1H-pyrazole-3-carbonyl]-4-methyl-N-(4-methylcyclohexyl)piperidine-4-carboxamide]
COc1cc(-c2cc(C(=O)N3CCC(C(=O)NC4CCC(=O)CC4)CC3)n[nH]2)ccn1 [1-[5-(2-methoxypyridin-4-yl)-1H-pyrazole-3-carbonyl]-N-(4-oxocyclohexyl)piperidine-4-carboxamide]
CC1CCC(NC(=O)C2CCN(C(=O)c3cc(-c4ccncc4C#N)[nH]n3)CC2)CC1 (stereo not shown) [1-[5-(3-cyanopyridin-4-yl)-1H-pyrazole-3-carbonyl]-N-(4-methylcyclohexyl)piperidine-4-carboxamide]
CC1CCC(NC(=O)C2CCN(C(=O)c3cc(-c4ccncc4F)[nH]n3)CC2)CC1 (stereo not shown) [1-[5-(3-fluoropyridin-4-yl)-1H-pyrazole-3-carbonyl]-N-(4-methylcyclohexyl)piperidine-4-carboxamide]
COc1cc(-c2cc(C(=O)N3CCC(C(=O)NC4CCS(=O)(=O)c5ccccc54)CC3)n[nH]2)c(Cl)cn1 (stereo not shown) [1-[5-(5-chloro-2-methoxypyridin-4-yl)-1H-pyrazole-3-carbonyl]-N-(1,1-dioxo-3,4-dihydro-2H-1λ^6-benzothiopyran-4-yl)piperidine-4-carboxamide]
COc1cc(-c2cc(C(=O)N3CCC(C(=O)NC4COCOC4)CC3)n[nH]2)c(Cl)cn1 [1-[5-(5-chloro-2-methoxypyridin-4-yl)-1H-pyrazole-3-carbonyl]-N-(1,3-dioxan-5-yl)piperidine-4-carboxamide]
COc1cc(-c2cc(C(=O)N3CCC(C(=O)Nc4nc(C)cn4C)CC3)n[nH]2)c(Cl)cn1 [1-[5-(5-chloro-2-methoxypyridin-4-yl)-1H-pyrazole-3-carbonyl]-N-(1,4-dimethyl-1H-imidazol-2-yl)piperidine-4-carboxamide]
COc1cc(-c2cc(C(=O)N3CCC(C(=O)NC4CCN(C5CCC5)CC4)CC3)n[nH]2)c(Cl)cn1 [1-[5-(5-chloro-2-methoxypyridin-4-yl)-1H-pyrazole-3-carbonyl]-N-(1-cyclobutylpiperidin-4-yl)piperidine-4-carboxamide]
COc1cc(-c2cc(C(=O)N3CCC(C(=O)Nc4nc5ccccc5n4C)CC3)n[nH]2)c(Cl)cn1 [1-[5-(5-chloro-2-methoxypyridin-4-yl)-1H-pyrazole-3-carbonyl]-N-(1-methyl-1H-1,3-benzodiazol-2-yl)piperidine-4-carboxamide]
COc1cc(-c2cc(C(=O)N3CCC(C(=O)NC4COC(C)(C)OC4)CC3)n[nH]2)c(Cl)cn1 [1-[5-(5-chloro-2-methoxypyridin-4-yl)-1H-pyrazole-3-carbonyl]-N-(2,2-dimethyl-1,3-dioxan-5-yl)piperidine-4-carboxamide]
COc1cc(-c2cc(C(=O)N3CCC(C(=O)NC4CS(=O)(=O)Cc5ccccc54)CC3)n[nH]2)c(Cl)cn1 (stereo not shown) [1-[5-(5-chloro-2-methoxypyridin-4-yl)-1H-pyrazole-3-carbonyl]-N-(2,2-dioxo-3,4-dihydro-1H-2λ^6-benzothiopyran-4-yl)piperidine-4-carboxamide]
COc1cc(-c2cc(C(=O)N3CCC(C(=O)Nc4cccc(F)c4F)CC3)n[nH]2)c(Cl)cn1 [1-[5-(5-chloro-2-methoxypyridin-4-yl)-1H-pyrazole-3-carbonyl]-N-(2,3-difluorophenyl)piperidine-4-carboxamide]
COc1cc(F)c(NC(=O)C2CCN(C(=O)c3cc(-c4cc(OC)ncc4Cl)[nH]n3)CC2)c(F)c1 [1-[5-(5-chloro-2-methoxypyridin-4-yl)-1H-pyrazole-3-carbonyl]-N-(2,6-difluoro-4-methoxyphenyl)piperidine-4-carboxamide]
COc1cc(-c2cc(C(=O)N3CCC(C(=O)NC4c5ccccc5CC4O)CC3)n[nH]2)c(Cl)cn1 (stereo not shown) [1-[5-(5-chloro-2-methoxypyridin-4-yl)-1H-pyrazole-3-carbonyl]-N-(2-hydroxy-2,3-dihydro-1H-inden-1-yl)piperidine-4-carboxamide]
COc1cc(-c2cc(C(=O)N3CCC(C(=O)NC4CCCc5[nH]c(=O)ccc54)CC3)n[nH]2)c(Cl)cn1 (stereo not shown) [1-[5-(5-chloro-2-methoxypyridin-4-yl)-1H-pyrazole-3-carbonyl]-N-(2-oxo-1,2,5,6,7,8-hexahydroquinolin-5-yl)piperidine-4-carboxamide]
COc1cc(-c2cc(C(=O)N3CCC(C(=O)NC(C)(C)c4ccccc4)CC3)n[nH]2)c(Cl)cn1 [1-[5-(5-chloro-2-methoxypyridin-4-yl)-1H-pyrazole-3-carbonyl]-N-(2-phenylpropan-2-yl)piperidine-4-carboxamide]
COc1cc(-c2cc(C(=O)N3CCC(C(=O)NC4(C)CC(F)(F)C4)CC3)n[nH]2)c(Cl)cn1 [1-[5-(5-chloro-2-methoxypyridin-4-yl)-1H-pyrazole-3-carbonyl]-N-(3,3-difluoro-1-methylcyclobutyl)piperidine-4-carboxamide]
COc1cc(-c2cc(C(=O)N3CCC(C(=O)NC4CC(F)(F)C4)CC3)n[nH]2)c(Cl)cn1 [1-[5-(5-chloro-2-methoxypyridin-4-yl)-1H-pyrazole-3-carbonyl]-N-(3,3-difluorocyclobutyl)piperidine-4-carboxamide]
COc1cc(-c2cc(C(=O)N3CCC(C(=O)Nc4nc(C)cnc4C)CC3)n[nH]2)c(Cl)cn1 [1-[5-(5-chloro-2-methoxypyridin-4-yl)-1H-pyrazole-3-carbonyl]-N-(3,6-dimethylpyrazin-2-yl)piperidine-4-carboxamide]
COc1cc(-c2cc(C(=O)N3CCC(C(=O)NC4CCC(O)C4)CC3)n[nH]2)c(Cl)cn1 (stereo not shown) [1-[5-(5-chloro-2-methoxypyridin-4-yl)-1H-pyrazole-3-carbonyl]-N-(3-hydroxycyclopentyl)piperidine-4-carboxamide]
COc1cc(-c2cc(C(=O)N3CCC(C(=O)Nc4nccnc4O)CC3)n[nH]2)c(Cl)cn1 [1-[5-(5-chloro-2-methoxypyridin-4-yl)-1H-pyrazole-3-carbonyl]-N-(3-hydroxypyrazin-2-yl)piperidine-4-carboxamide]
COc1cc(-c2cc(C(=O)N3CCC(C(=O)NC4CCC(C#N)CC4)CC3)n[nH]2)c(Cl)cn1 (stereo not shown) [1-[5-(5-chloro-2-methoxypyridin-4-yl)-1H-pyrazole-3-carbonyl]-N-(4-cyanocyclohexyl)piperidine-4-carboxamide]
CCC1(O)CCC(NC(=O)C2CCN(C(=O)c3cc(-c4cc(OC)ncc4Cl)[nH]n3)CC2)CC1 (stereo not shown) [1-[5-(5-chloro-2-methoxypyridin-4-yl)-1H-pyrazole-3-carbonyl]-N-(4-ethyl-4-hydroxycyclohexyl)piperidine-4-carboxamide]
COc1cc(-c2cc(C(=O)N3CCC(C(=O)Nc4noc5cccc(F)c45)CC3)n[nH]2)c(Cl)cn1 [1-[5-(5-chloro-2-methoxypyridin-4-yl)-1H-pyrazole-3-carbonyl]-N-(4-fluoro-1,2-benzoxazol-3-yl)piperidine-4-carboxamide]

Same assay, conditions: TR-FRET AC50, Co-R peptide recruitment to PPARγ

AC50, > 1 µM:
COc1cc(-c2cc(C(=O)N3CCC(C(=O)NC(C)(C)c4ccccc4)CC3)n[nH]2)ccn1 [1-[5-(2-methoxypyridin-4-yl)-1H-pyrazole-3-carbonyl]-N-(2-phenylpropan-2-yl)piperidine-4-carboxamide]
